In series [1] the target is T1, Multidrug resistance-associated protein 1 (Homo sapiens, UniProt P33527). In words: TP_TRANSPORTER: increase in Calcein intracellular accumulation (Calcein: 0.5 uM, Rifampicin: 200 uM) in GLC4/ADR cells. Particulars: glc-4/adr. In kind it is functional, cell-based.
The target of series [2] is T1, Multidrug resistance-associated protein 1. Briefly: TP_TRANSPORTER: increase in Calcein intracellular accumulation (Calcein: 0.5 uM, Rifamycin SV: 200 uM) in GLC4/ADR cells. In kind it is functional, cell-based. Particulars: glc-4/adr.

T1 sequence (P33527 whole entry): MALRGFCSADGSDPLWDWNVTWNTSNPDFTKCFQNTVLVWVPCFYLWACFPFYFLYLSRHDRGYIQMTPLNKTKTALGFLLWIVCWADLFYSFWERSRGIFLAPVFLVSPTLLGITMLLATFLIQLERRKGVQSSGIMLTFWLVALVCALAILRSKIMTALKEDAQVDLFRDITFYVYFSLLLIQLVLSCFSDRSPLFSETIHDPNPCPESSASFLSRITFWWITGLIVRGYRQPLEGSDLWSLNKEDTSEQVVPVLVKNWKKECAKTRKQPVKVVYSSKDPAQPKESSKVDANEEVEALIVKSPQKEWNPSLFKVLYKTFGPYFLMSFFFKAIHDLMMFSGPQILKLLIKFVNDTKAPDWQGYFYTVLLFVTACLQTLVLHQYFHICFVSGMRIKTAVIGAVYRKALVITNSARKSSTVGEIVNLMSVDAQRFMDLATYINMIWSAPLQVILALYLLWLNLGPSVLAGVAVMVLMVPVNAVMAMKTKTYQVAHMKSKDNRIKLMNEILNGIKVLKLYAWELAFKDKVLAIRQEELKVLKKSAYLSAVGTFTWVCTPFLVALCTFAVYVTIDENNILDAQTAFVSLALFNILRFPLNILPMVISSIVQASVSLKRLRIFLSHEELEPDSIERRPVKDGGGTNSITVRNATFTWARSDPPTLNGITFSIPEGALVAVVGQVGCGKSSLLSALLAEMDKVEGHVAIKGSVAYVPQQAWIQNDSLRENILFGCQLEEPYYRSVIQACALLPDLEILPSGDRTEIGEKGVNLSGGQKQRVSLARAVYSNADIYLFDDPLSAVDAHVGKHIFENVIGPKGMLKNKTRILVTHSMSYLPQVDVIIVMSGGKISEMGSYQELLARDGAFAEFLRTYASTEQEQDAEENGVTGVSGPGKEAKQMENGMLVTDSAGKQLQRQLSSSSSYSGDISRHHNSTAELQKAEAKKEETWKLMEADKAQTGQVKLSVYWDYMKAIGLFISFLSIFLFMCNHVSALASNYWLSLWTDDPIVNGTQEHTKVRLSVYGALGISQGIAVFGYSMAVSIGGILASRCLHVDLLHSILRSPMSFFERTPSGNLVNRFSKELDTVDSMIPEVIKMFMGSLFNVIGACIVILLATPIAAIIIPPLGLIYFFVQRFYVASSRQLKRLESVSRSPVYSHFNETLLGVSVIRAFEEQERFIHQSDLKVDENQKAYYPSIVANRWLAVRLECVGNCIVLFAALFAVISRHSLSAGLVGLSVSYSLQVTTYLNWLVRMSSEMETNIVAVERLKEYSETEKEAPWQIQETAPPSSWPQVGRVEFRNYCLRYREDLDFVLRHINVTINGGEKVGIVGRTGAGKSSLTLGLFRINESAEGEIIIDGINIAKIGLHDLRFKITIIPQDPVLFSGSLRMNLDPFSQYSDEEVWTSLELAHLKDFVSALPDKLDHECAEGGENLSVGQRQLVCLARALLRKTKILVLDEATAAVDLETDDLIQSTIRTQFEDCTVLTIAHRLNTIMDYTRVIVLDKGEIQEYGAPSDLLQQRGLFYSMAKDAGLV

Regarding `CO[C@H]1/C=C/O[C@@]2(C)Oc3c(C)c(O)c4c(O)c(c(/C=N/N5CCN(C)CC5)c(O)c4c3C2=O)NC(=O)/C(C)=C\C=C\[C@H](C)[C@H](O)[C@@H](C)[C@@H](O)[C@@H](C)[C@H](OC(C)=O)[C@@H]1C` [RIFAMPIN], in series [1], the Activity is listed as 110%. Turning to `CO[C@H]1/C=C/O[C@@]2(C)Oc3c(C)c(O)c4c(O)c(cc(O)c4c3C2=O)NC(=O)/C(C)=C\C=C\[C@H](C)[C@H](O)[C@@H](C)[C@@H](O)[C@@H](C)[C@H](OC(C)=O)[C@@H]1C` [RIFAMYCIN], in series [2], the Activity was 110%.

(Values after ChEMBL document CHEMBL2074559, “Inhibition of multidrug resistance-associated protein (MRP) activity by rifampicin in human multidrug-resistant lung tumor cells” (Cancer Lett, 1999).)
